Experimental data: US20170354148A1, “SAFENED HERBICIDAL COMPOSITIONS CONTAINING HALAUXIFEN AND METHODS OF USE THEREOF IN BRASSICA SPECIES” (Dow AgroSciences LLC, priority 2016, published 2017)

Test system: Spring Argentine canola (Brassica napus, BRSNS)
Test: Example 3 field trials (Canada), postemergence crop safety, visual phytotoxicity

## O=C(O)c1nc(Cl)ccc1Cl [Clopyralid-olamine, 2-hydroxyethanaminium 3,6-dichloro-2-pyridinecarboxylate]
Table 22, 14DAAA, halauxifen-methyl 5, clopyralid-olamine 150, quinclorac 101 g ae/ha, alone or mixed
  Mean % Visual Injury: 0.5%
Table 22, 40DAAA, halauxifen-methyl 5, clopyralid-olamine 150, quinclorac 101 g ae/ha, alone or mixed
  Mean % Visual Injury: 0.0%
Table 22, 81DAAA, halauxifen-methyl 5, clopyralid-olamine 150, quinclorac 101 g ae/ha, alone or mixed
  Mean % Visual Injury: 0.0%
Table 23, 7DAAA, halauxifen-methyl 5, clopyralid-olamine 150 g ae/ha, alone or mixed
  Mean % Visual Injury: 2.0%
Table 23, 17DAAA, halauxifen-methyl 5, clopyralid-olamine 150 g ae/ha, alone or mixed
  Mean % Visual Injury: 1.0%
Table 23, 32DAAA, halauxifen-methyl 5, clopyralid-olamine 150 g ae/ha, alone or mixed
  Mean % Visual Injury: 2.0%
Table 23, 49DAAA, halauxifen-methyl 5, clopyralid-olamine 150 g ae/ha, alone or mixed
  Mean % Visual Injury: 0.8%
Table 24, 7DAAA, halauxifen-methyl 5, clopyralid-olamine 150 g ae/ha alone, or both mixed with isoxadifen-ethyl 20 g ae/ha
  Mean % Visual Injury: 2.0%
Table 24, 17DAAA, halauxifen-methyl 5, clopyralid-olamine 150 g ae/ha alone, or both mixed with isoxadifen-ethyl 20 g ae/ha
  Mean % Visual Injury: 1.0%
Table 24, 32DAAA, halauxifen-methyl 5, clopyralid-olamine 150 g ae/ha alone, or both mixed with isoxadifen-ethyl 20 g ae/ha
  Mean % Visual Injury: 2.0%
Table 24, 49DAAA, halauxifen-methyl 5, clopyralid-olamine 150 g ae/ha alone, or both mixed with isoxadifen-ethyl 20 g ae/ha
  Mean % Visual Injury: 0.8%
Table 28, 7DAAA, halauxifen-methyl 5, clopyralid-olamine 150, quinclorac 101 g ae/ha, alone or mixed
  Mean % Visual Injury: 2.0%
Table 28, 17DAAA, halauxifen-methyl 5, clopyralid-olamine 150, quinclorac 101 g ae/ha, alone or mixed
  Mean % Visual Injury: 1.0%
Table 28, 32DAAA, halauxifen-methyl 5, clopyralid-olamine 150, quinclorac 101 g ae/ha, alone or mixed
  Mean % Visual Injury: 2.0%
Table 28, 49DAAA, halauxifen-methyl 5, clopyralid-olamine 150, quinclorac 101 g ae/ha, alone or mixed
  Mean % Visual Injury: 0.8%
Trial 1, 16DAA1, halauxifen-methyl 2.5, clopyralid-olamine 150 g ae/ha, alone or mixed
  Mean % Visual Growth Inhibition: 5.5%
Trial 1, 30DAA1, halauxifen-methyl 2.5, clopyralid-olamine 150 g ae/ha, alone or mixed
  Mean % Visual Growth Inhibition: 6.3%
Trial 1, 58DAA1, halauxifen-methyl 2.5, clopyralid-olamine 150 g ae/ha, alone or mixed
  Mean % Visual Growth Inhibition: 2.8%
Trial 2, 32DAA1, halauxifen-methyl 0.62, clopyralid-olamine 150 g ae/ha, alone or mixed
  Mean % Visual Growth Inhibition: 2.8%
Trial 2, 32DAA1, halauxifen-methyl 1.25, clopyralid-olamine 150 g ae/ha, alone or mixed
  Mean % Visual Growth Inhibition: 2.8%
Trial 2, 32DAA1, halauxifen-methyl 2.5, clopyralid-olamine 150 g ae/ha, alone or mixed
  Mean % Visual Growth Inhibition: 2.8%
Trial 2, 49DAA1, halauxifen-methyl 0.62, clopyralid-olamine 150 g ae/ha, alone or mixed
  Mean % Visual Growth Inhibition: 2.8%
Trial 2, 49DAA1, halauxifen-methyl 1.25, clopyralid-olamine 150 g ae/ha, alone or mixed
  Mean % Visual Growth Inhibition: 2.8%
Trial 2, 49DAA1, halauxifen-methyl 2.5, clopyralid-olamine 150 g ae/ha, alone or mixed
  Mean % Visual Growth Inhibition: 2.8%
Trial 3, 8DAA1, halauxifen-methyl 5, clopyralid-olamine 150 g ae/ha, alone or mixed, line r23
  Mean % Visual Growth Inhibition: 0.8%
Trial 3, 8DAA1, halauxifen-methyl 5, clopyralid-olamine 150 g ae/ha, alone or mixed, line r25
  Mean % Visual Growth Inhibition: 0.3%
Trial 3, 8DAA1, halauxifen-methyl 10, clopyralid-olamine 150 g ae/ha, alone or mixed, line r22
  Mean % Visual Growth Inhibition: 0.8%
Trial 3, 8DAA1, halauxifen-methyl 10, clopyralid-olamine 150 g ae/ha, alone or mixed, line r24
  Mean % Visual Growth Inhibition: 0.3%
Trial 3, 17DAA1, halauxifen-methyl 5, clopyralid-olamine 150 g ae/ha, alone or mixed, line r27
  Mean % Visual Growth Inhibition: 1.0%
Trial 3, 17DAA1, halauxifen-methyl 5, clopyralid-olamine 150 g ae/ha, alone or mixed, line r29
  Mean % Visual Growth Inhibition: 1.3%
Trial 3, 17DAA1, halauxifen-methyl 10, clopyralid-olamine 150 g ae/ha, alone or mixed, line r26
  Mean % Visual Growth Inhibition: 1.0%
Trial 3, 17DAA1, halauxifen-methyl 10, clopyralid-olamine 150 g ae/ha, alone or mixed, line r28
  Mean % Visual Growth Inhibition: 1.3%
Trial 3, 35DAA1, halauxifen-methyl 10, clopyralid-olamine 150 g ae/ha, alone or mixed
  Mean % Visual Growth Inhibition: 0.8%
Trial 3, 48DAA1, halauxifen-methyl 5, clopyralid-olamine 150 g ae/ha, alone or mixed, line r31
  Mean % Visual Growth Inhibition: 2.0%
Trial 3, 48DAA1, halauxifen-methyl 5, clopyralid-olamine 150 g ae/ha, alone or mixed, line r32
  Mean % Visual Growth Inhibition: 0.8%
Trial 4, 13DAA1, halauxifen-methyl 10, clopyralid-olamine 150 g ae/ha, alone or mixed, line r33
  Mean % Visual Growth Inhibition: 0.0%
Trial 4, 13DAA1, halauxifen-methyl 10, clopyralid-olamine 150 g ae/ha, alone or mixed, line r34
  Mean % Visual Growth Inhibition: 0.0%
Trial 5, 7DAA1, halauxifen-methyl 0.62, clopyralid-olamine 150 g ae/ha, alone or mixed
  Mean % Visual Growth Inhibition: 1.3%
Trial 5, 7DAA1, halauxifen-methyl 1.25, clopyralid-olamine 150 g ae/ha, alone or mixed
  Mean % Visual Growth Inhibition: 1.3%
Trial 5, 7DAA1, halauxifen-methyl 2.5, clopyralid-olamine 150 g ae/ha, alone or mixed
  Mean % Visual Growth Inhibition: 1.3%
Trial 5, 7DAA1, halauxifen-methyl 5, clopyralid-olamine 150 g ae/ha, alone or mixed
  Mean % Visual Growth Inhibition: 1.3%
Trial 6, 33DAA1, halauxifen-methyl 5, clopyralid-olamine 150 g ae/ha, alone or mixed
  Mean % Visual Growth Inhibition: 0.5%
Trial 7, 8DAA1, halauxifen-methyl 5, clopyralid-olamine 150 g ae/ha, alone or mixed
  Mean % Visual Growth Inhibition: 1.5%
Trial 7, 15DAA1, halauxifen-methyl 0.62, clopyralid-olamine 150 g ae/ha, alone or mixed
  Mean % Visual Growth Inhibition: 1.0%
Trial 7, 15DAA1, halauxifen-methyl 5, clopyralid-olamine 150 g ae/ha, alone or mixed
  Mean % Visual Growth Inhibition: 1.0%
Trial 8, 7DAA1, halauxifen-methyl 5, clopyralid-olamine 150 g ae/ha, alone or mixed
  Mean % Visual Growth Inhibition: 0.5%
Trial 8, 7DAA1, halauxifen-methyl 10, clopyralid-olamine 150 g ae/ha, alone or mixed, line r44
  Mean % Visual Growth Inhibition: 0.0%
Trial 8, 7DAA1, halauxifen-methyl 10, clopyralid-olamine 150 g ae/ha, alone or mixed, line r45
  Mean % Visual Growth Inhibition: 0.0%
Trial 8, 7DAA1, halauxifen-methyl 10, clopyralid-olamine 150 g ae/ha, alone or mixed, line r46
  Mean % Visual Growth Inhibition: 1.3%
Trial 8, 7DAA1, halauxifen-methyl 10, clopyralid-olamine 150 g ae/ha, alone or mixed, line r47
  Mean % Visual Growth Inhibition: 1.5%
Trial 8, 15DAA1, halauxifen-methyl 5, clopyralid-olamine 150 g ae/ha, alone or mixed
  Mean % Visual Growth Inhibition: 0.0%
Trial 8, 15DAA1, halauxifen-methyl 10, clopyralid-olamine 150 g ae/ha, alone or mixed, line r49
  Mean % Visual Growth Inhibition: 0.0%
Trial 8, 15DAA1, halauxifen-methyl 10, clopyralid-olamine 150 g ae/ha, alone or mixed, line r50
  Mean % Visual Growth Inhibition: 0.5%
Trial 9, 6DAA1, halauxifen-methyl 5, clopyralid-olamine 150 g ae/ha, alone or mixed
  Mean % Visual Growth Inhibition: 0.0%
Trial 9, 23DAA1, halauxifen-methyl 2.5, clopyralid-olamine 150 g ae/ha, alone or mixed
  Mean % Visual Growth Inhibition: 0.0%
Trial 9, 23DAA1, halauxifen-methyl 5, clopyralid-olamine 150 g ae/ha, alone or mixed
  Mean % Visual Growth Inhibition: 0.0%
Trial 9, 33DAA1, halauxifen-methyl 5, clopyralid-olamine 150 g ae/ha, alone or mixed
  Mean % Visual Growth Inhibition: 0.0%
Trial 9, 59DAA1, halauxifen-methyl 5, clopyralid-olamine 150 g ae/ha, alone or mixed
  Mean % Visual Growth Inhibition: 0.0%
Trial 10, 17DAA1, halauxifen-methyl 5, clopyralid-olamine 100 g ae/ha, alone or mixed
  Mean % Visual Growth Inhibition: 0.0%
Trial 10, 17DAA1, halauxifen-methyl 5, clopyralid-olamine 150 g ae/ha, alone or mixed
  Mean % Visual Growth Inhibition: 0.0%
Trial 10, 17DAA1, halauxifen-methyl 5, clopyralid-olamine 200 g ae/ha, alone or mixed
  Mean % Visual Growth Inhibition: 0.0%
Trial 10, 27DAA1, halauxifen-methyl 5, clopyralid-olamine 150 g ae/ha, alone or mixed
  Mean % Visual Growth Inhibition: 0.0%
Trial 10, 27DAA1, halauxifen-methyl 5, clopyralid-olamine 200 g ae/ha, alone or mixed
  Mean % Visual Growth Inhibition: 1.7%
Trial 11, 7DAA1, halauxifen-methyl 5, clopyralid-olamine 150 g ae/ha, alone or mixed
  Mean % Visual Growth Inhibition: 2.5%
Trial 11, 15DAA1, halauxifen-methyl 0.62, clopyralid-olamine 150 g ae/ha, alone or mixed
  Mean % Visual Growth Inhibition: 3.0%
Trial 11, 15DAA1, halauxifen-methyl 1.25, clopyralid-olamine 150 g ae/ha, alone or mixed
  Mean % Visual Growth Inhibition: 3.0%
Trial 12, 15DAA1, halauxifen-methyl 10, clopyralid-olamine 150 g ae/ha, alone or mixed
  Mean % Visual Growth Inhibition: 0.0%
Trial 12, 27DAA1, halauxifen-methyl 5, clopyralid-olamine 150 g ae/ha, alone or mixed
  Mean % Visual Growth Inhibition: 1.0%
